One series has as its target T1, human PLK1 kinase domain (Homo sapiens, UniProt P53350).
T1 construct: Each reaction consisted of 30 nM enzyme PLK1 kinase domain
The experiment in a line: In vitro PLK1 assay (IMAP fluorescence polarization kinase assay). In kind it is biochemical. The note with it: for IC50: 30 nM PLK1 kinase domain, 16 μM ATP (=Kmapp), 90 min at room temperature; for inhibition at 10 µM: at 10 uM compound. The method, then: The activity of the compounds described in the present invention was determined using a commercially available IMAP Screening Express Assay Kit (Molecular devices).
This method measures the change in the fluorescent polarization of a fluorescently-labeled peptide due to the effect of human PLK1 kinase domain on it. PLK1 kinase assays were performed in low protein binding 384-well plates (Corning 3676). Test compounds were diluted in 100% DMSO to 5 mM stock concentration, the further dilutions were made in H2O or 100% DMSO to desirable concentrations.
Each reaction consisted of 30 nM enzyme PLK1 kinase domain, 400 nM 5TAMRA-RGSFNDTLDFD-NH2 (Genecust Europe), 16 μM ATP (=Kmapp, Sigma-Aldrich) and kinase buffer: 20 mM HEPES pH 7.5 (Sigma-Aldrich), 1 mM DTT (Sigma-Aldrich), 10 mM MgCl2 (Sigma-Aldrich), 0.01% Triton X-100 (Sigma-Aldrich).
For each reaction, 4 or 6 μl containing 5TAMRA-RGSFNDTLDFD-NH2, ATP and kinase buffer were combined with 2 μl diluted compound in H2O or 0.04 μl compound in 100% DMSO. The kinase reaction was started by the addition of 2 μl diluted enzyme. The reaction was allowed to run for 90 minutes at room temperature. The reaction was stopped by adding 15 μl IMAP beads (1:1200 beads in progressive (40% buffer A, 60% buffer B) 1× buffer). After an additional 60 minutes, fluorescent polarization (Ex: 550-10 nm, Em: 590-10 nm, Dich: 561 nm) was measured using Analyst GT multimode reader (Molecular Devices).

The subject of the next series is M. tuberculosis H37Rv. The experiment in a line: Resazurin reduction microtiter assay (REMA), growth inhibition and MIC determination. Format: cell-based. The note with it: Mycobacterium tuberculosis, 168 h, 7 days at 37° C.; for inhibition at 20 µM: at 20 uM compound, read-out: H37Rv inh % at 20 uM; for MIC: two-fold serial dilution from 100 to 0.16 μM, read-out: H37Rv MIC90. Background: The colour change of resazurin is a common sign of viable cells or microbes.

Converted amounts (≈) assume the structure as drawn.

T1 sequence (P53350 53-305 limits assumed): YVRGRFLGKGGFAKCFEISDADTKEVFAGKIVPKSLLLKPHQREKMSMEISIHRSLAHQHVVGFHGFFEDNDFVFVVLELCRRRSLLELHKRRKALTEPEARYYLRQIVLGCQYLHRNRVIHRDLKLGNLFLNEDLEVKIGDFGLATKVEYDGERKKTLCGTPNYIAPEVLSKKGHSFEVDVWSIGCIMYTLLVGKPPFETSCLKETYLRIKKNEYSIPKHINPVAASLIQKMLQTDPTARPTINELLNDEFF

Usually IC50 stands for the concentration that inhibits the measured activity by half. Take `COc1ccc(C)cc1-c1cc(Nc2ccc(S(=O)(=O)Nc3onc(C)c3C)cc2)ncn1` [Example 9, N-(3,4-Dimethyl-isoxazol-5-yl)-4-[6-(2-methoxy-5-methyl-phenyl)-pyrimidin-4-ylamino]-benzenesulfonamide]: on human PLK1 kinase domain, half-maximal inhibition (IC50) required 807 nM and the inhibition at 10 µM was 67.6%. Also, in the series with M. tuberculosis H37Rv, the inhibition at 20 µM came out at 101% and the MIC was determined as 19.3 µM (≈ 8.98 µg/mL). Besides, the “HepG2 TD50” value with HepG2 worked out at 19.6.
As for `COc1cccc(F)c1-c1cc(Nc2ccc(S(=O)(=O)Nc3onc(C)c3C)cc2)ncn1` [Example 12, N-(3,4-Dimethyl-isoxazol-5-yl)-4-[6-(2-fluoro-6-methoxy-phenyl)-pyrimidin-4-ylamino]-benzenesulfonamide], at human PLK1 kinase domain, the IC50 amounted to 1460 nM and the inhibition at 10 µM stood at 83.3%. In addition, in the series on M. tuberculosis H37Rv, the inhibition at 20 µM stood at 102% and the MIC worked out at 1.13 µM (≈ 0.531 µg/mL). For the same compound, the “HepG2 TD50” value in the series on HepG2 was 19.6.
As to `COc1cccc(Cl)c1-c1cc(Nc2ccc(S(=O)(=O)Nc3onc(C)c3C)cc2)ncn1` [Example 15, 4-[6-(2-Chloro-6-methoxy-phenyl)-pyrimidin-4-ylamino]-N-(3,4-dimethyl-isoxazol-5-yl)-benzenesulfonamide], the inhibition at 10 µM at human PLK1 kinase domain was 96.4%. In addition, in the series with M. tuberculosis H37Rv, the inhibition at 20 µM was 102% and the MIC is 0.292 µM (≈ 0.142 µg/mL). The “HepG2 TD50” value in the series on HepG2 came to 0.0458.
For `Cc1noc(NS(=O)(=O)c2ccc(Nc3cc(-c4cc(Cl)ccc4Cl)ncn3)cc2)c1C` [Example 16, 4-[6-(2,5-Dichloro-phenyl)-pyrimidin-4-ylamino]-N-(3,4-dimethyl-isoxazol-5-yl)-benzenesulfonamide], at human PLK1 kinase domain, the IC50 came out at 604 nM and the inhibition at 10 µM was found to be 7.9%. For the same compound, in the series with M. tuberculosis H37Rv, the inhibition at 20 µM worked out at 100% and the MIC worked out at 11.8 µM (≈ 5.76 µg/mL). For the same compound, the “HepG2 TD50” value in the series with HepG2 is reported as 2.37.
In the case of `COc1cccc(OC)c1-c1cc(Nc2ccc(S(=O)(=O)Nc3onc(C)c3C)cc2)ncn1` [Example 22, 4-[6-(2,6-Dimethoxy-phenyl)-pyrimidin-4-ylamino]-N-(3,4-dimethyl-isoxazol-5-yl)-benzenesulfonamide], the inhibition at 10 µM at human PLK1 kinase domain came out at 10.1%. In the series on M. tuberculosis H37Rv, the inhibition at 20 µM came out at 102% and the MIC amounted to 7.24 µM (≈ 3.49 µg/mL). Besides, the “HepG2 TD50” value in the series on HepG2 came to 9.819.
As to `COc1ccc(-c2cc(Nc3ccc(S(=O)(=O)Nc4onc(C)c4C)cc3)ncn2)c(OC)c1` [Example 37, 4-[6-(2,4-Dimethoxy-phenyl)-pyrimidin-4-ylamino]-N-(3,4-dimethyl-isoxazol-5-yl)-benzenesulfonamide], on human PLK1 kinase domain, the IC50 is 947 nM and the inhibition at 10 µM amounted to 70%. In the series with M. tuberculosis H37Rv, the inhibition at 20 µM came to 101% and the MIC is 13.7 µM (≈ 6.57 µg/mL). Further, the “HepG2 TD50” value with HepG2 worked out at 16.1.

For the origin of these results see patent US20150368209A1, “4-Pyrimidinylamino-benzenesulfonamide derivatives and their use for the inhibition of polo-like kinase 1 (PLK1) for the treatment of cancer and their use for the treatment of bacterial infections” (VICHEM CHEMIE KUTATÓ KFT., priority 2013, published 2015).
